{"source": "patent US7855228B2", "about": "“Antibiotics targeting MreB” (The Board of Trustees of the Leland Stamford Junior …, priority 2005, dated 2010)", "key": {"[1]": {"tested_on": "E. coli MG1655", "assay": "Determination of minimum inhibitory concentration (MIC)", "assay_type": "cell-based", "details": "Escherichia coli, read-out: MIC E. coli", "method_in_brief": "(§1)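 Two-fold serial agar dilution on L agar and also on Mueller Hinton agar (pH 7.3); 10 µl of stationary-phase culture diluted in 0.85% NaCl to 10^6 cells/ml spotted per plate. MIC taken as lowest concentration inhibiting growth.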"}, "[2]": {"tested_on": "S. aureus subsp. aureus NBRC15035", "assay": "Determination of minimum inhibitory concentration (MIC)", "assay_type": "cell-based, Staphylococcus aureus", "details": "Staphylococcus aureus, read-out: MIC S. aureus", "method_in_brief": "as §1"}, "[3]": {"tested_on": "Caulobacter chromosomal loci (origin, origin-distal loci)", "assay": "Chromosome segregation of FROS-labeled loci", "assay_type": "cell-based, Caulobacter crescentus", "description": "A22 Treatment Blocks Chromosome Segregation. Having established that A22 targets MreB and rapidly disrupts its localization, we used A22 to assess the acute role of MreB in chromosome segregation. To this end we took advantage of strains previously generated in our group that use the fluorescent repressor-operator system (FROS) to simultaneously label two specific chromosomal loci in the same living cell. This system uses fusions of two DNA binding proteins, the lac repressor (LacI) and the Tet repressor (tetR), to CFP and YFP, respectively. Two arrays, each containing multiple tandem repeats of either the LacI or TetR binding sites, are integrated into different chromosomal loci. Each fusion protein clusters at its respective array, causing the cellular address of that array to fluoresce in a detectable fashion.\nSynchronized swarmer cells with lac arrays at the origin locus and tet arrays at the midcell-positioned CC2943 locus (FIG. 5A) were incubated with 10 μg/ml A22. After varying periods of time in the presence of A22, the cellular positions of the origin and CC2943 were examined by fluorescence microscopy. The cultures continued to increase in cell mass, as measured by an increase in optical density, but cell division was blocked. […] This effect was reversible, since upon washing out the A22 drug, the origins were rapidly and normally segregated.\nTreatment of swarmer cells with A22 before the origins have segregated blocks the movement of chromosomal loci. […]\nThough origin-distal loci can separate in the presence of A22, MreB could still partially contribute to their cellular positioning and rate of movement across the cell. Technical considerations prevent the quantitative analysis of locus movement in doubly labeled cells. Thus, to quantitatively assess the role of MreB in origin-distal locus segregation, we examined two singly labeled strains, one with CC0786 marked at 860 kb to the right of the origin, and one with CC3192 marked at 576 kb to the left of the origin. […] The timelapses were analyzed using automated software that provides the absolute position of each locus in each cell. […]\nMicroscopy and Timelapse Imaging. […] The rates of origin-distal locus segregation were determined by inducing PxyI:lacI:cfp expression with 0.03% xylose for 75 min, isolating swarmer cells, and growing the swarmer cells in M2G liquid medium for 50 min. After 50 min, 10 μg/ml of A22 was added to these liquid cultures, they were mounted onto 1% M2G agarose pads containing 10 μg/ml A22, and a phase and CFP fluorescence image was captured every 2 min for 60 min. The images were analyzed by previously described software to determine the average position and rate of movement of the observed foci."}, "[4]": {"tested_on": "HoIB-GFP", "assay": "HoIB-GFP (replisome) localization", "assay_type": "cell-based, Caulobacter crescentus", "details": "1 hr treatment", "description": "To assess the ability of these cells to assemble a replisome at the replication origins, A22 was administered to cells expressing a fusion of GFP to the HoIB subunit of DNA polymerase."}, "[5]": {"molecular_target": "T1, MreB-GFP fusion protein (Escherichia coli, UniProt P0A9X4)", "T1 construct": "expressed in transfected cells; host or cells: E. coli JM109 carrying pMreB1-GFP (native mreB promoter)", "assay": "MreB helical structures in vivo (MreB-GFP)", "assay_type": "cell-based, E. coli", "details": "10 μg/ml", "description": "FIG. 11. In vivo effects of A22. Exponentially growing JM109/pMreB1-GFP cells were treated with 10 μg/ml of A22, and changes in cell shape and GFP fluorescence were observed. (a, b) no treatment; (c, d) 30 min after A22 treatment; (e, f) 60 min after A22 treatment; (g, h) 120 min after A22 treatment.\nIt was recently shown that the MreB forms helical structures in E. coli as well as B. subtilis. […] In rounded cells, MreB-GFP appeared as discrete dots located close to the cell surface (FIGS. 11e-11h), which may be the result of aggregation of MreB-GFP protein de-polymerized by A22.\nConstruction of a mreB-gfp fusion plasmid A DNA fragment encoding the wild-type mreB gene was PCR-amplified from pMreB1 with primers (SEQ ID NO:5) 5′-[…]-3′ and (SEQ ID NO:6) 5′-[…]-3′. After cutting with Xba I and Nhe I, the PCR-generated DNA fragments were ligated to an XbaI-NheI-cut gfp vector pQIB-T7-GFP (Qbiogene Inc., Irvine, Calif., USA), resulting in an mreB-gfp translational fusion. From the resulting plasmid, an Aor51HI-HindIII fragment encoding the C-terminal portion of MreB fused with GFP was isolated and used to replace the Aor51HI-HindIII fragment of pMreB1, resulting in a plasmid pMreB1-GFP that expresses the MreB-GFP fusion protein from the native mreB promoter. […]"}}, "note": "“Also recorded” adds a separate entry of the source. Where two headings read alike, the source gives them in different places.", "data": [{"smiles": "N=C(N)SCc1ccc(Cl)c(Cl)c1", "note": "[Compound 1, S-(3,4-dichlorobenzyl)isothiourea]", "values": [{"measurement": "MIC", "setting": "[1]; MG1655, Example 2, methods as in Example 1", "result": 3.13, "unit": "µg/mL"}, {"measurement": "MIC", "setting": "[1]; MG1655, Table 1, E. coli MG1655", "result": 3.13, "unit": "µg/mL"}, {"measurement": "MIC", "setting": "[2]; NBRC15035, Example 2, methods as in Example 1", "result": "> 100", "unit": "µg/mL"}, {"measurement": "MIC", "setting": "[2]; NBRC15035, Table 1, NBRC15035", "result": "> 100", "unit": "µg/mL"}, {"measurement": "Origin segregation in cells with T158A A22-resistant mreB allele", "setting": "[3]; 10 μg/ml", "result": "successfully segregated"}, {"measurement": "Locus position and rate of segregation of CC0786 and CC3192", "setting": "[3]; 10 μg/ml added after 50 min, timelapse 60 min", "result": "unaffected"}, {"measurement": "Foci of origin and CC2943 loci in swarmer cells", "setting": "[3]; 10 μg/ml added to synchronized swarmer cells, 30-180 min", "result": "only one focus for each locus"}, {"measurement": "Separation of origin-distal loci (CC2943, CC3300, CC3656, CC0091)", "setting": "[3]; A22 added after origin segregation (30 min), listed as A22", "result": "proceeded to replicate and separate their CC2943 locus into two foci; also recorded: duplicated and separated in the presence of A22"}, {"measurement": "HoIB-GFP localization", "setting": "[4]", "result": "no effect on HoIB-GFP localization"}, {"measurement": "MreB-GFP dots and bands (helical structures)", "setting": "[5]; 30-minute treatment, JM109 cells", "result": "fluorescent dots and bands disappeared"}, {"measurement": "Cell shape of MreB-GFP expressing JM109 cells", "setting": "[5]; after 120 minutes", "result": "almost spherical"}]}]}
